# Laboratory results published in patent US20150368195A1, “INDOLINE COMPOUNDS FOR TREATMENT AND/OR PREVENTION OF INFLAMMATION DISEASES” (Taipei Medical University, priority 2014, published 2015).
# “Also recorded” adds a separate entry of the source.
# Tests used:
# HDAC2 = molecular target: T1, HDAC2 (Homo sapiens, UniProt Q92769); experiment: recombinant HDAC isoform inhibition (kit); format: biochemical; settings: mean ± SEM, three replicates
# T1 construct: purchased
# From the text: (§1) Using kits that contained different recombinant HDAC isoforms, we evaluated the ability of MPT0G009 to inhibit HDAC-mediated deacetylation of lysine residues on the substrates that were provided.
# HDAC1 = molecular target: T2, HDAC1 (Homo sapiens, UniProt Q13547); experiment: recombinant HDAC isoform inhibition (kit); format: biochemical; settings: mean ± SEM, three replicates
# T2 construct: purchased
# T2 sequence (Q13547 whole entry, species assumed, canonical isoform): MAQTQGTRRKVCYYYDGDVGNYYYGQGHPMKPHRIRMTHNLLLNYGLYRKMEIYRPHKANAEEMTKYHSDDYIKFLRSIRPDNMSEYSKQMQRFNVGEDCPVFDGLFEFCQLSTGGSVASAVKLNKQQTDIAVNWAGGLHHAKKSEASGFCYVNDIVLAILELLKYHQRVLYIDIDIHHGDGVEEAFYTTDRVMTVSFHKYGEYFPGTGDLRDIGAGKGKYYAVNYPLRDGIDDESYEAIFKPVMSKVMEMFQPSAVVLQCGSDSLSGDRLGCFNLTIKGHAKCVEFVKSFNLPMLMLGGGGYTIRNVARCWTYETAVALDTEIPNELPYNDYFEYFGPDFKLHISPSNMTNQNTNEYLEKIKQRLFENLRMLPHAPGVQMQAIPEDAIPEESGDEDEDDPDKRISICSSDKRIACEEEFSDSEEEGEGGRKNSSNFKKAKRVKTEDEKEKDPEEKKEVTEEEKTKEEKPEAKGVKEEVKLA
# From the text: as §1
# HDAC8 = molecular target: T3, HDAC8 (Homo sapiens, UniProt Q9BY41); experiment: recombinant HDAC isoform inhibition (kit); format: biochemical; settings: mean ± SEM, three replicates, read-out: IC50 DHAC8
# T3 construct: purchased
# T3 sequence (Q9BY41 whole entry, canonical isoform): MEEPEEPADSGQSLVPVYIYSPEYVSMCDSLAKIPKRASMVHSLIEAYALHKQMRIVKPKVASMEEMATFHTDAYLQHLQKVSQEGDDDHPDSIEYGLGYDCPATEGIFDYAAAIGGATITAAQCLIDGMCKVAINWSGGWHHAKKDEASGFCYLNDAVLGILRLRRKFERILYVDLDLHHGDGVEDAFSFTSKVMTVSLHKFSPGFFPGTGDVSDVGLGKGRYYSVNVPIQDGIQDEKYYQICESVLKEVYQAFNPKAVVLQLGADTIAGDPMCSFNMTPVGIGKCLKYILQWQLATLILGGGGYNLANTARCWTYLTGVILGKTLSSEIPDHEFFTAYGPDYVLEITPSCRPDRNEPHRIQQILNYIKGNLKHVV
# From the text: as §1
# HDAC3 [1] = molecular target: T4, HDAC3 (Homo sapiens, UniProt O15379); experiment: recombinant HDAC isoform inhibition (kit); format: biochemical; settings: mean ± SEM, three replicates
# T4 construct: purchased
# T4 sequence (O15379 whole entry, species assumed, canonical isoform): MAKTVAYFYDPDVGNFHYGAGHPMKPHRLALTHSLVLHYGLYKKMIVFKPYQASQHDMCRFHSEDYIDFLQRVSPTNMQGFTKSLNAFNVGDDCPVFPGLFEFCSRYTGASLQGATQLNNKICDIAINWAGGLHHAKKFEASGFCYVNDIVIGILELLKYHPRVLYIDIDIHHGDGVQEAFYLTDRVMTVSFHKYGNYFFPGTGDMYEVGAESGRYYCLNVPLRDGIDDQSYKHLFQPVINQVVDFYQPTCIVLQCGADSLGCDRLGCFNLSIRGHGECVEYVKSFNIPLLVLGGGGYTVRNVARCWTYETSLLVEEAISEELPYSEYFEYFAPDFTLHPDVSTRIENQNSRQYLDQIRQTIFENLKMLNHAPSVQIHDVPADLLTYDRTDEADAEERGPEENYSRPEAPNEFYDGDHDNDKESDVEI
# T4 sequence (Q9Y618 395-489 partner limits assumed, species assumed): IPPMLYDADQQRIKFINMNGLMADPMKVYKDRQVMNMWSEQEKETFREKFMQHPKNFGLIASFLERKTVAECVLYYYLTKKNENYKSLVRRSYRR
# From the text: as §1
# HDAC6 = molecular target: T5, HDAC6 (Homo sapiens, UniProt Q9UBN7); experiment: recombinant HDAC isoform inhibition (kit); format: biochemical; settings: mean ± SEM, three replicates
# T5 construct: purchased
# T5 sequence (Q9UBN7 whole entry, species assumed, canonical isoform): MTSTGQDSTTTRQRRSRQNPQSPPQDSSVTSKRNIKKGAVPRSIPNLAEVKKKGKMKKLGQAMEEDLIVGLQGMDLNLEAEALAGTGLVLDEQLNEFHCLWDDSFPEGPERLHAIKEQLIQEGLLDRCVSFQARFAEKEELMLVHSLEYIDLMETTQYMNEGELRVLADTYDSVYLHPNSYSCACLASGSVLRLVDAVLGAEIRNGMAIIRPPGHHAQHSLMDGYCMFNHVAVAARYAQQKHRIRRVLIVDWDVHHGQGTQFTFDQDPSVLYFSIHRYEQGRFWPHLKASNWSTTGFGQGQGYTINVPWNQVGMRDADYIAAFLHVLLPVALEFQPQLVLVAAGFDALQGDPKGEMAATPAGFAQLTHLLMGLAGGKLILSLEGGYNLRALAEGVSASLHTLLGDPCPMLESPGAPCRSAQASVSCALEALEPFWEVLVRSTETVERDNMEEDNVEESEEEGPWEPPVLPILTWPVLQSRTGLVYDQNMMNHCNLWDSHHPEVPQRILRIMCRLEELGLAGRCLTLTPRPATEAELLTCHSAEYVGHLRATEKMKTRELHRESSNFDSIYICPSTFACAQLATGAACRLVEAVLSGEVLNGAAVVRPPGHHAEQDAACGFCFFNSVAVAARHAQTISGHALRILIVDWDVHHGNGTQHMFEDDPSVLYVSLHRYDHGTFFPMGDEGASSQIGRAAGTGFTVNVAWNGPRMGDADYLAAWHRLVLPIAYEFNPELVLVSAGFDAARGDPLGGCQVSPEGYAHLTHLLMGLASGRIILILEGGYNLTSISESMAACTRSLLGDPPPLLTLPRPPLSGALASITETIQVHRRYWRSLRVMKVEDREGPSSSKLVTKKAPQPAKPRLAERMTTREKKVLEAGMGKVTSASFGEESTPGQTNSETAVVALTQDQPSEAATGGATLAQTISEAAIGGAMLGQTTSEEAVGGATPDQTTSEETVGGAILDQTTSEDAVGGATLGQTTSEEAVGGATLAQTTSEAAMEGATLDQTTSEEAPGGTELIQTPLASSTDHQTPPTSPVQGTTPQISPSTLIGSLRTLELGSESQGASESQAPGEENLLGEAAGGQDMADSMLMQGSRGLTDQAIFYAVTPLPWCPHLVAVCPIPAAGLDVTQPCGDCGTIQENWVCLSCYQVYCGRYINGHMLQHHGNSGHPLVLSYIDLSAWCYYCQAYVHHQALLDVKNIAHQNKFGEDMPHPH
# From the text: as §1
# [2] = tested on: inducible nitric oxide synthase (iNOS); experiment: LPS-induced iNOS protein expression, Western blot, RAW264.7; format: cell-based, Mouse; settings: RAW264.7, 0.1-10 μM, LPS 25 ng/mL 24 h
# Description: Then the cells were harvested and whole cell extracts were prepared for Western blot analysis for iNOS and COX-2. The relative protein expressions are presented as mean±SEM for four replicates. *p<0.05 compared to the LPS-treated group.
# HDAC3 [3] = experiment: HDAC isoform protein levels, Western blot, RA-FLS; format: cell-based; settings: 12 or 24 h; 1 μM MPT0G009 or 30 μM SAHA
# Description: Then cells were harvested and cell lysates were prepared for Western blot analysis of the indicated proteins. (FIG. 5C) RA-FLS were incubated for 1 h with or without the proteasome inhibitor, MG132 (1 μM). […] Results shown are representative of three independent experiments.
# IL-6 = experiment: IL-1β-induced IL-6 production by RA-FLS; format: cell-based; settings: MPT0G009 0.1, 1, 10 μM; SAHA 0.3, 3, 30 μM; IL-1β 10 ng/mL 24 h
# Description: (§2) (FIG. 1A) Structure of MPT0G009. […] Results in (FIGS. 1B-E) and (FIG. 1G) are means±SEM's for three independent experiments, *p<0.05 and **p<0.01 compared with no added inhibitor.
# (§3) Furthermore, the anti-inflammatory effects of MPT0G009 was evaluated. […] These supernatants were then assayed for PGE2, NO, and IL-6.
# p21 = p21 expression by flow cytometry or western blot in RA-FLS; format: cell-based; settings: 24 h, 1 μM MPT0G009 or 3 μM SAHA
# From the text: as §2
# prostaglandin E2 (PGE2) [4] = experiment: LPS-induced PGE2 production in RAW 264.7 macrophages; format: cell-based, Mouse
# Description: as §3
# RA-FLS [5] = experiment: cell cycle distribution by flow cytometry (propidium iodide); format: cell-based; settings: 24 h
# From the text: as §2
# RA-FLS [6] = experiment: SRB anti-proliferation assay; format: cell-based; settings: 24 or 48 h incubation
# From the text: as §2
# HIG-82 synoviocytes = experiment: SRB anti-proliferation assay; format: cell-based; settings: 24 or 48 h incubation
# From the text: as §2
# histone H3 (Acetyl-H3) = experiment: histone H3 acetylation, Western blot, HIG-82 synoviocytes; format: cell-based; settings: 3 μM MPT0G009 or 60 μM SAHA; 6, 12, 24 h; starting at 6 h
# prostaglandin E2 (PGE2) [7] = experiment: LPS-induced PGE2 production by RA-FLS; format: cell-based; settings: MPT0G009 0.1, 1, 10 μM; SAHA 0.3, 3, 30 μM; LPS 25 ng/mL 24 h
# Description: as §2, §3
# [8] = tested on: tumor necrosis factor-α (TNF-α); experiment: LPS-induced TNF-α production in RAW 264.7 macrophages; settings: Mus musculus, RAW264.7, read-out: IC50 TNF-α
# nitric oxide (NO) = experiment: LPS-induced nitric oxide production in RAW 264.7 macrophages; format: cell-based, Mouse
# Description: Nitrite concentration was determined using a dilution of sodium nitrite as a standard.
# as §3
# RAW264.7 macrophages = experiment: M-CSF/RANKL-induced osteoclast formation; format: cell-based, Mouse; settings: 5 nM MPT0G009 or 50 nM SAHA; M-CSF/RANKL 50 ng/mL, 5 days
# Description: Cells were then tartrate resistant acid phosphatase (TRAP) stained, and the numbers of TRAP-positive multinuclear cells were counted. […] Images are at ×100 magnification, and the arrows indicate differentiated osteoclasts. (FIG. 6C) RAW264.7 cells were treated as in (FIG. 6B), then incubated with a fluorescein isothiocyanate (FITC)-conjugated anti-CD51/61 antibody and analyzed by flow cytometry. (FIGS. 6D and 6E) RAW264.7 cells (1×10^5) were transfected with 1 μg of pGL4.32[luc2P/NF-κB-RE/Hygro] (FIG. 6D) or pGL4.30[luc2P/NFAT-RE/Hygro] (FIG. 6E) for 24 h and then incubated for 30 min with or without MPT0G009 (5 nM). Then RANKL (50 ng/mL) was added and incubation was continued for an additional 24 h, after which luciferase activity was determined. Results in (FIGS. 6A, 6D, and 6E) are the means±SEM's for three independent experiments. **p<0.01 compared with the indicated controls.
# Bone destruction is one characteristic of RA pathogenesis, resulting in joint dysfunction. Differentiation of mouse macrophages osteoclast-like cells can be induced in the presence of M-CSF and RANKL, which has been used as a model to investigate osteoclast differentiation. […] Subsequently, multinucleate tartrate resistant acid phosphatase (TRAP)-positive cells were counted.
# [9] = tested on: carrageenan-induced hind paw edema; experiment: carrageenan-induced hind paw edema
# Description: A 0.5% (w/v) suspension of carrageenan in normal saline was administered to male Wistar rats (7-weeks) by intradermal injection into the base of the right hind paw. […] A positive control group was included in which rats were pretreated with 5 mg/kg Indomethacin. […] The results are expressed as the mean±SEM, with n=5. *p<0.05 compared to the control group; #p<0.05 for the comparison of the indicated groups.
# Animals were divided into four groups (n=5). 0.5% (w/v) suspension of carrageenan in normal saline was administered to male Wistar rats (7-weeks) by intradermal injection into the base of the right hind paw. […] A positive control group was included in which rats were pretreated with 5 mg/kg Indomethacin. Three hours after carrageenan administration, the thickness and volume of the right hind paw were measured by digital caliper and digital plethysmometer (Diagnostic & Research Instruments CO., Ltd, Taipei, Taiwan), respectively.
# [10] = in vivo rat pharmacokinetic profiling; design: species or system rats
# From the text: The pharmokinetic parameters of MPT0G009 in rats after single-dose intravenous (i.v.) and oral administration are summarized in Table 2. […].
# [11] = MPT0G009 0.1, 1, 10 μM, SAHA 0.3, 3, 30 μM, LPS 25 ng/mL 24 h
# [12] = Mus musculus, RAW264.7, LPS-stimulated RAW 264.7 macrophages, mean ± SEM, three experiments
# T1 sequence (Q92769 whole entry, species assumed, canonical isoform): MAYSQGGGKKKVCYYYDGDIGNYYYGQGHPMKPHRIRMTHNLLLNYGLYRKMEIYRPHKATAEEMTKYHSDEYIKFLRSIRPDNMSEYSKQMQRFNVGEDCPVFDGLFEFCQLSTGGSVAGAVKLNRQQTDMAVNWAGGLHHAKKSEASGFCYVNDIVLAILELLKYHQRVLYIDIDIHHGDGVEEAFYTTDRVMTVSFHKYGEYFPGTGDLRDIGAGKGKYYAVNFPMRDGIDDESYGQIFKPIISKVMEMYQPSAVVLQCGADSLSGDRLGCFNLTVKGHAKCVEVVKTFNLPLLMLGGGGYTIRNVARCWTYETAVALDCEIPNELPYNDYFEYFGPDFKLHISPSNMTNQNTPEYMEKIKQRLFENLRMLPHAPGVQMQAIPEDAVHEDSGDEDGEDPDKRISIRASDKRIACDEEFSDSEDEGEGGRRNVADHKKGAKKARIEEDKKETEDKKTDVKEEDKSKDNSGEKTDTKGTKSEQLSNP
structure (smiles),measurement,setting,value
"COc1ccc(S(=O)(=O)N2CCc3cc(C=CC(=O)NO)ccc32)cc1 [Compound 9, 3-[1-(4-methoxybenzenesulfonyl)-2,3-dihydro-1H-indol-5-yl]-N-Hydroxyacrylamide]",IC50,HDAC2,0.00516 ± 0.00076 µM
same,IC50,HDAC1,0.00462 ± 0.00081 µM
same,IC50,HDAC8,0.0225 µM
same,IC50,HDAC3 [1],0.00191 µM
same,IC50,HDAC6,0.00843 ± 0.00072 µM
same,iNOS protein expression,[2],concentration-dependently inhibitory effects
same,iNOS protein expression,[2]; listed as compound 9,significantly inhibited
same,levels of HDAC3 in RA-FLS,HDAC3 [3],decreased levels of HDAC3
same,IL-6 production by RA-FLS,IL-6,inhibited
same,expression of p21,p21,significantly increased
same,PGE2 production by RAW264.7 cells,prostaglandin E2 (PGE2) [4]; [11],inhibited
same,IC50,prostaglandin E2 (PGE2) [4]; [12],0.52 µM
same,subG1 peak (cellular apoptosis),"RA-FLS [5]; MPT0G009 1-1000 nM, SAHA 3-3000 nM",did not increase the subG1 peak
same,G0/G1 phase arrest,RA-FLS [5]; all concentrations of both agents,G0/G1 phase arrest was observed
same,proliferation of RA-FLS,RA-FLS [6],concentration-dependent anti-proliferative effects
same,proliferation of HIG-82 synoviocytes,HIG-82 synoviocytes,concentration-dependent anti-proliferative effects
same,acetylation of histone H3 in HIG-82 synoviocytes,histone H3 (Acetyl-H3),significant hyperacetylation of histone H3
same,PGE2 production by RA-FLS,prostaglandin E2 (PGE2) [7],inhibited
same,IC50,[8],0.52 µM
same,NO production by RAW264.7 cells,nitric oxide (NO); [11],inhibited
same,IC50,nitric oxide (NO); [12],1.07 µM
same,expression of osteoclast-specific marker CD51/61,RAW264.7 macrophages,significantly inhibited
same,formation of M-CSF/RANKL-induced TRAP-positive cells,RAW264.7 macrophages,significantly inhibited; also recorded: inhibits
same,paw thickness reduced compared to control,"[9]; compound 9 25 mg/kg oral, 3 h after carrageenan",21.3%
same,carrageenan-induced hind paw edema,"[9]; oral, 1 h before carrageenan, compound 9 25 mg/kg, SAHA 200 mg/kg, Indomethacin 5 mg/kg, measured 3 h after",significantly inhibited; also recorded: suppress
same,T1/2,"[10]; rat, in vivo, iv, 2 mg/kg",6.74 h
same,Vd,"[10]; rat, in vivo, iv, 2 mg/kg",25.21 L/kg
same,T1/2,"[10]; rat, in vivo, po, 20 mg/kg",9.53 h
same,F,"[10]; rats, po 20 mg/kg, MPT0G009",13.0%
